Species: Rattus norvegicus
Assay: DrugMatrix - Regimen: Daily Repeat
Assay type: toxicity, organism-based, Sprague-Dawley
Design: regimen Daily Repeat, gender Male, age 6-8 weeks
Settings: in vivo, po, route oral GAVAGE, […]; for ABSOLUTE BASOPHIL / ABSOLUTE EOSINOPHIL / ABSOLUTE LYMPHOCYTE / ABSOLUTE MONOCYTE / ABSOLUTE SEGMENTED NEUTROPHIL / BASOPHIL / EOSINOPHIL / ERYTHROCYTE COUNT / HEMATOCRIT / HEMOGLOBIN / LEUKOCYTE COUNT / LYMPHOCYTE / MEAN CORPUSCULAR HEMOGLOBIN / MEAN CORPUSCULAR HEMOGLOBIN CONCENTRATION / MEAN CORPUSCULAR VOLUME / MONOCYTE / NEUTROPHIL / NUCLEATED RED BLOOD CELLS / PLATELET COUNT: tissue Blood; for ALANINE AMINOTRANSFERASE / ALBUMIN / ALKALINE PHOSPHATASE / ASPARTATE AMINOTRANSFERASE / BLOOD UREA NITROGEN / CARBON DIOXIDE / CHLORIDE / CHOLESTEROL / CREATINE PHOSPHOKINASE / CREATININE / GLUCOSE / LACTATE DEHYDROGENASE / LIPASE / PHOSPHORUS / POTASSIUM / SODIUM / TOTAL BILIRUBIN / TOTAL PROTEIN / URIC ACID: tissue Plasma
[1] = 0 mg/kg, 72 h, dose level Control, time 3 day
[2] = 0 mg/kg, 120 h, dose level Control, time 5 day
[3] = 300 mg/kg, 72 h, dose level High, time 3 day

SMILES: CC(C)c1c(C(=O)Nc2ccccc2)c(-c2ccccc2)c(-c2ccc(F)cc2)n1CC[C@@H](O)C[C@@H](O)CC(=O)O [ATORVASTATIN]
- ABSOLUTE BASOPHIL [1]: 0 CELLS/uL
- ABSOLUTE EOSINOPHIL [1]: 14 CELLS/uL
- ABSOLUTE LYMPHOCYTE [1]: 11144.67 CELLS/uL
- ABSOLUTE MONOCYTE [1]: 22.5 CELLS/uL
- ABSOLUTE SEGMENTED NEUTROPHIL [1]: 535.5 CELLS/uL
- BASOPHIL [1]: 0%
- EOSINOPHIL [1]: 0.17%
- ERYTHROCYTE COUNT [1]: 5.08 x10E6/uL
- HEMATOCRIT [1]: 32.32%
- HEMOGLOBIN [1]: 12.87 G/DL
- LEUKOCYTE COUNT [1]: 11.72 x10E3/uL
- LYMPHOCYTE [1]: 94.67%
- MEAN CORPUSCULAR HEMOGLOBIN [1]: 25.37 pg
- MEAN CORPUSCULAR HEMOGLOBIN CONCENTRATION [1]: 39.85 G/DL
- MEAN CORPUSCULAR VOLUME [1]: 63.58 fL
- MONOCYTE [1]: 0.17%
- NEUTROPHIL [1]: 5%
- NUCLEATED RED BLOOD CELLS [1]: 0 /100WBC
- PLATELET COUNT [1]: 1084 x10E3/uL
- ALANINE AMINOTRANSFERASE [1]: 67.5 u/L
- ALBUMIN [1]: 4.02 G/DL
- ALKALINE PHOSPHATASE [1]: 374.17 u/L
- ASPARTATE AMINOTRANSFERASE [1]: 83.5 u/L
- BLOOD UREA NITROGEN [1]: 14.5 mg/dL
- CARBON DIOXIDE [1]: 30 mmol/L
- CHLORIDE [1]: 100.5 MEQ/L
- CHOLESTEROL [1]: 71.33 mg/dL
- CREATINE PHOSPHOKINASE [1]: 268.33 u/L
- CREATININE [1]: 0.16 mg/dL
- GLUCOSE [1]: 170.5 mg/dL
- LACTATE DEHYDROGENASE [1]: 81.17 u/L
- LIPASE [1]: 16.67 u/L
- PHOSPHORUS [1]: 10.07 mg/dL
- POTASSIUM [1]: 5.03 MEQ/L
- SODIUM [1]: 142.92 MEQ/L
- TOTAL BILIRUBIN [1]: 0.17 mg/dL
- TOTAL PROTEIN [1]: 5.63 G/DL
- URIC ACID [1]: 0.5 mg/dL
- ABSOLUTE BASOPHIL [2]: 0 CELLS/uL
- ABSOLUTE EOSINOPHIL [2]: 37.5 CELLS/uL
- ABSOLUTE LYMPHOCYTE [2]: 8049.5 CELLS/uL
- ABSOLUTE MONOCYTE [2]: 82.83 CELLS/uL
- ABSOLUTE SEGMENTED NEUTROPHIL [2]: 646.83 CELLS/uL
- BASOPHIL [2]: 0%
- EOSINOPHIL [2]: 0.5%
- ERYTHROCYTE COUNT [2]: 5.36 x10E6/uL
- HEMATOCRIT [2]: 33.9%
- HEMOGLOBIN [2]: 13.02 G/DL
- LEUKOCYTE COUNT [2]: 8.82 x10E3/uL
- LYMPHOCYTE [2]: 90.17%
- MEAN CORPUSCULAR HEMOGLOBIN [2]: 24.32 pg
- MEAN CORPUSCULAR HEMOGLOBIN CONCENTRATION [2]: 38.42 G/DL
- MEAN CORPUSCULAR VOLUME [2]: 63.32 fL
- MONOCYTE [2]: 1.17%
- NEUTROPHIL [2]: 8.17%
- NUCLEATED RED BLOOD CELLS [2]: 0.17 /100WBC
- PLATELET COUNT [2]: 1231.5 x10E3/uL
- ALANINE AMINOTRANSFERASE [2]: 62 u/L
- ALBUMIN [2]: 3.97 G/DL
- ALKALINE PHOSPHATASE [2]: 303.67 u/L
- ASPARTATE AMINOTRANSFERASE [2]: 84.5 u/L
- BLOOD UREA NITROGEN [2]: 14.83 mg/dL
- CARBON DIOXIDE [2]: 31.83 mmol/L
- CHLORIDE [2]: 97 MEQ/L
- CHOLESTEROL [2]: 68.83 mg/dL
- CREATINE PHOSPHOKINASE [2]: 411.33 u/L
- CREATININE [2]: 0.16 mg/dL
- GLUCOSE [2]: 170.17 mg/dL
- LACTATE DEHYDROGENASE [2]: 88.5 u/L
- LIPASE [2]: 9.5 u/L
- PHOSPHORUS [2]: 9.98 mg/dL
- POTASSIUM [2]: 5.72 MEQ/L
- SODIUM [2]: 141.62 MEQ/L
- TOTAL BILIRUBIN [2]: 0.1 mg/dL
- TOTAL PROTEIN [2]: 5.67 G/DL
- URIC ACID [2]: 0.52 mg/dL
- ABSOLUTE BASOPHIL [3]: 0 CELLS/uL
- ABSOLUTE EOSINOPHIL [3]: 88 CELLS/uL
- ABSOLUTE LYMPHOCYTE [3]: 7063.33 CELLS/uL
- ABSOLUTE MONOCYTE [3]: 150.67 CELLS/uL
- ABSOLUTE SEGMENTED NEUTROPHIL [3]: 964.67 CELLS/uL
- BASOPHIL [3]: 0%
- EOSINOPHIL [3]: 1%
- ERYTHROCYTE COUNT [3]: 5.19 x10E6/uL
- HEMATOCRIT [3]: 32.23%
- HEMOGLOBIN [3]: 12.9 G/DL
- LEUKOCYTE COUNT [3]: 8.27 x10E3/uL
- LYMPHOCYTE [3]: 86%
- MEAN CORPUSCULAR HEMOGLOBIN [3]: 24.93 pg
- MEAN CORPUSCULAR HEMOGLOBIN CONCENTRATION [3]: 40.13 G/DL
- MEAN CORPUSCULAR VOLUME [3]: 62.1 fL
- MONOCYTE [3]: 1.67%
- NEUTROPHIL [3]: 11.33%
- NUCLEATED RED BLOOD CELLS [3]: 0 /100WBC
- PLATELET COUNT [3]: 924.33 x10E3/uL
- ALANINE AMINOTRANSFERASE [3]: 226.67 u/L
- ALBUMIN [3]: 4.2 G/DL
- ALKALINE PHOSPHATASE [3]: 729 u/L
- ASPARTATE AMINOTRANSFERASE [3]: 518.67 u/L
- BLOOD UREA NITROGEN [3]: 15 mg/dL
- CARBON DIOXIDE [3]: 26.33 mmol/L
- CHLORIDE [3]: 103 MEQ/L
- CHOLESTEROL [3]: 70.67 mg/dL
- CREATINE PHOSPHOKINASE [3]: 416.67 u/L
- CREATININE [3]: 0.17 mg/dL
- GLUCOSE [3]: 160 mg/dL
- LACTATE DEHYDROGENASE [3]: 414.67 u/L
- LIPASE [3]: 12 u/L
- PHOSPHORUS [3]: 10 mg/dL
- POTASSIUM [3]: 4.92 MEQ/L
- SODIUM [3]: 144.23 MEQ/L
- TOTAL BILIRUBIN [3]: 0.37 mg/dL
- TOTAL PROTEIN [3]: 5.67 G/DL
- URIC ACID [3]: 0.67 mg/dL

— ChEMBL document CHEMBL3885881, “DrugMatrix”
